Experimental data: publication PMC6222614, “Disubstituted 4-Chloro-3-nitrophenylthiourea Derivatives: Antimicrobial and Cytotoxic Studies” (Molecules : A Journal of Synthetic Chemistry and Natural …, 2018)
≈ marks a conversion by molar mass, not a printed value. Read-outs that look alike come from different tables or passages of the source.

Experiments:
[1] = Cytotoxicity against mock-infected MT-4 cells (MTT); format: cell-based, human; conditions: human, concentration reducing viability of mock-infected MT-4 cells by 50%
Protocol: (§1) Cell line supporting the multiplication of Human Immunodeficiency Virus type-1 (HIV-1) was the CD4+ human T-cells, derived from human hematological tumors, containing an integrated HTLV-1 genome (MT-4). Cells were purchased from American Type Culture Collection (ATCC). Human Immunodeficiency Virus type-1 (HIV-1) IIIB laboratory strain was obtained from the supernatant of the persistently infected H9/IIIB cells (NIH 1983).
Exponentially growing MT-4 cells were seeded at an initial density of 1 × 10^5 cells/mL in 96-well plates in RPMI-1640 medium, supplemented with 10% fetal bovine serum (FBS), 100 units/mL penicillin G and 100 μg/mL streptomycin. Cell cultures were then incubated at 37 °C in a humidified, 5% CO2 atmosphere, in the absence or presence of serial dilutions of tested compounds. Cell viability was determined after 96 h at 37 °C by the 3-(4,5-dimethylthiazol-2-yl)-2,5-diphenyl-tetrazolium bromide (MTT) method.

[2] = tested on: S. epidermidis MRSE 409/11; test: MIC, hospital methicillin-resistant strain; format: cell-based; conditions: Staphylococcus epidermidis
Protocol: (§2) The antimicrobial activity of the compounds was tested on Gram-positive bacteria (Staphylococcus aureus NCTC 4163, Staphylococcus aureus ATCC 25923, Staphylococcus aureus ATCC 6538, Staphylococcus aureus ATCC 29213, Staphylococcus epidermidis ATCC 12228, Staphylococcus epidermidis ATCC 35984, Enterococcus faecalis ATCC 29212, Bacillus subtilis ATCC 6633, Bacillus cereus ATCC 11778, Micrococcus luteus ATCC 9341, Micrococcus luteus ATCC 10240); Gram-negative rods (Escherichia coli ATCC 10538, Escherichia coli ATCC 25922, Escherichia coli NCTC 8196, Proteus vulgaris NCTC 4635, Pseudomonas aeruginosa ATCC 15442, Pseudomonas aeruginosa NCTC 6749, Pseudomonas aeruginosa ATCC 27863, Bordetella bronchiseptica ATCC 4617) and yeasts (Candida albicans ATCC 10231, Candida albicans ATCC 90028, Candida parapsilosis ATCC 22019). Other microorganisms used were obtained from the collection of the Department of Pharmaceutical Microbiology, Medical University of Warsaw, Poland.
(§3) Antibacterial activity was examined by the disc-diffusion method under standard conditions using Mueller-Hinton II agar medium (Becton Dickinson) according to CLSI (previously NCCLS) guidelines. Antifungal activities were assessed using Mueller-Hinton agar + 2% glucose and 0.5 µg/mL Methylene Blue Dye Medium. Sterile filter paper discs (9 mm diameter, Whatman No 3 chromatography paper) were dripped with tested compound solutions (in DMSO) to load 400 μg of a given compound per disc. Dry discs were placed on the surface of appropriate agar medium. The results (diameter of the growth inhibition zone) were read after 18 h of incubation at 35 °C. Minimal Inhibitory Concentration (MIC) was tested by the twofold serial microdilution method (in 96-well microtiter plates) using Mueller-Hinton Broth medium (Beckton Dickinson) for bacteria or RPMI-1640 medium for Candida species according to CLSI guidelines. The stock solution of tested agent was prepared in DMSO and diluted in sterile water. Concentrations of tested agents ranged from 0.125 to 512 µg/mL. The final inoculum of all studied microorganisms was 10^5 CFU/ mL^−1 (colony forming units per mL). Minimal inhibitory concentrations (the lowest concentration of a tested agent that prevents visible growth of a microorganism) were read after 18 h (bacteria) or 24 h (yeasts) of incubation at 35 °C.

[3] = tested on: S. epidermidis MRSE 413/11; test: MIC, hospital methicillin-resistant strain; format: cell-based; conditions: Staphylococcus epidermidis
Protocol: as §2, §3

[4] = tested on: S. epidermidis MRSE 403/11; test: MIC, hospital methicillin-resistant strain; format: cell-based; conditions: Staphylococcus epidermidis
Protocol: as §2, §3

[5] = tested on: S. epidermidis MRSE 412/11; test: MIC, hospital methicillin-resistant strain; format: cell-based; conditions: Staphylococcus epidermidis
Protocol: as §2, §3

[6] = tested on: S. epidermidis MRSE 422/11; test: MIC, hospital methicillin-resistant strain; format: cell-based; conditions: Staphylococcus epidermidis
Protocol: as §2, §3

[7] = tested on: S. epidermidis MRSE 411/11; test: MIC, hospital methicillin-resistant strain; format: cell-based; conditions: Staphylococcus epidermidis
Protocol: as §2, §3

[8] = tested on: S. epidermidis MRSE 406/11; test: MIC, hospital methicillin-resistant strain; format: cell-based; conditions: Staphylococcus epidermidis
Protocol: as §2, §3

[9] = tested on: S. epidermidis MRSE 407/11; test: MIC, hospital methicillin-resistant strain; format: cell-based; conditions: Staphylococcus epidermidis
Protocol: as §2, §3

[10] = tested on: S. epidermidis MRSE 404/11; test: MIC, hospital methicillin-resistant strain; format: cell-based; conditions: Staphylococcus epidermidis
Protocol: as §2, §3

[11] = tested on: S. epidermidis MRSE 405/11; test: MIC, hospital methicillin-resistant strain; format: cell-based; conditions: Staphylococcus epidermidis
Protocol: as §2, §3

HIV-1 IIIB = test: Anti-HIV-1 activity: protection of MT-4 cells from virus-induced cytopathogenicity (MTT); format: cell-based, Human Immunodeficiency Virus type-1; conditions: Human immunodeficiency virus 1, IIIB, MT4, 96 h, read-out: HIV-1IIIB EC50
Text: as §1
The activity of compounds against HIV-1 was based on inhibition of virus-induced cytopathogenicity in MT-4 cell acutely infected with a multiplicity of infection (m.o.i.) of 0.01. Briefly, 50 μL of RPMI containing 1 × 10^4 MT-4 cells were added to each well of flat-bottom microtiter trays, containing 50 μL of RPMI without or with serial dilutions of test compounds. Then, 20 μL of a HIV-1 suspension containing 100 CCID50 were added. After a 4-day incubation at 37 °C, cell viability was determined by the MTT method.

B. cereus ATCC 11778 = test: MIC, twofold serial microdilution; format: cell-based; conditions: Bacillus cereus, ATCC11778; standard strain, 18 h, 35 °C
Protocol: as §2, §3

S. aureus ATCC 6538 = test: MIC, twofold serial microdilution; format: cell-based; conditions: Staphylococcus aureus, ATCC6538; standard strain, 18 h, 35 °C
Protocol: as §2, §3

M. luteus ATCC 10240 = test: MIC, twofold serial microdilution; format: cell-based; conditions: Micrococcus luteus, ATCC10240; standard strain, 18 h, 35 °C
Protocol: as §2, §3

S. aureus ATCC 25923 = test: MIC, twofold serial microdilution; format: cell-based; conditions: Staphylococcus aureus, ATCC25923; standard strain, 18 h, 35 °C
Protocol: as §2, §3

[12] = tested on: S. epidermidis ATCC 35984; test: MIC, twofold serial microdilution; format: cell-based; conditions: Staphylococcus epidermidis, ATCC35984; standard strain, 18 h, 35 °C
Protocol: as §2, §3

M. luteus ATCC 9341 = test: MIC, twofold serial microdilution; format: cell-based; conditions: Micrococcus luteus, ATCC9341; standard strain, 18 h, 35 °C
Protocol: as §2, §3

B. subtilis ATCC 6633 = test: MIC, twofold serial microdilution; format: cell-based; conditions: Bacillus subtilis, ATCC6633; standard strain, 18 h, 35 °C
Protocol: as §2, §3

[13] = tested on: S. epidermidis ATCC 12228; test: MIC, twofold serial microdilution; format: cell-based; conditions: Staphylococcus epidermidis, ATCC12228; standard strain, 18 h, 35 °C
Protocol: as §2, §3

S. aureus NCTC 4163 = test: MIC, twofold serial microdilution; format: cell-based; conditions: Staphylococcus aureus, NCTC4163; standard strain, 18 h, 35 °C
Protocol: as §2, §3

S. aureus ATCC 29213 = test: MIC, twofold serial microdilution; format: cell-based; conditions: Staphylococcus aureus, ATCC29213; standard strain, 18 h, 35 °C
Protocol: as §2, §3

staphylococci = test: MIC against staphylococci; format: cell-based; conditions: moderate activity
Protocol: as §2, §3

E. faecalis ATCC 29212 = test: MIC, twofold serial microdilution; format: cell-based; conditions: Enterococcus faecalis, ATCC29212; standard strain, 18 h, 35 °C
Protocol: as §2, §3

Row | Compound | melting point [°C] | CC50 at 96 h [1] [µM] | MIC [2] [µg/mL] | MIC [3] [µg/mL] | MIC [4] [µg/mL] | MIC [5] [µg/mL] | MIC [6] [µg/mL] | MIC [7] [µg/mL] | MIC [8] [µg/mL] | MIC [9] [µg/mL] | MIC [10] [µg/mL] | MIC [11] [µg/mL] | MIC (B. cereus ATCC 11778) [µg/mL] | MIC (S. aureus ATCC 6538) [µg/mL] | MIC (M. luteus ATCC 10240) [µg/mL] | MIC (S. aureus ATCC 25923) [µg/mL] | MIC [12] [µg/mL] | MIC (M. luteus ATCC 9341) [µg/mL] | MIC (B. subtilis ATCC 6633) [µg/mL] | MIC [13] [µg/mL] | further results
1 | O=[N+]([O-])c1cc(NC(=S)NC2CC3CCC2C3)ccc1Cl (stereo not drawn) [Compound 24, 1-bicyclo[2.2.1]hept-2-yl-3-(4-chloro-3-nitrophenyl)thiourea] | 94 to 96 | 16 | 4 (≈ 12.3 µM) | 4 (≈ 12.3 µM) | 4 (≈ 12.3 µM) | 4 (≈ 12.3 µM) | 4 (≈ 12.3 µM) | 4 (≈ 12.3 µM) | 8 (≈ 24.6 µM) | 4 (≈ 12.3 µM) | 4 (≈ 12.3 µM) | 4 (≈ 12.3 µM) | 8 (≈ 24.6 µM) | 8 (≈ 24.6 µM) | 16 (≈ 49.1 µM) | 8 (≈ 24.6 µM) | 16 (≈ 49.1 µM) | 32 (≈ 98.2 µM) | 8 (≈ 24.6 µM) | 16 (≈ 49.1 µM) | EC50 (HIV-1 IIIB): > 16 µM; MIC (S. aureus NCTC 4163): 8 µg/mL (≈ 24.6 µM); MIC (S. aureus ATCC 29213): 8 µg/mL (≈ 24.6 µM); MIC range towards staphylococci (staphylococci): 8 to 16 µg/mL
2 | C=CCNC(=S)Nc1ccc(Cl)c([N+](=O)[O-])c1 [Compound 28, 1-(4-chloro-3-nitrophenyl)-3-prop-2-en-1-ylthiourea] | 112 to 114 | 43 | 64 (≈ 236 µM) | 64 (≈ 236 µM) | 64 (≈ 236 µM) | 128 (≈ 471 µM) | 128 (≈ 471 µM) | 64 (≈ 236 µM) | 64 (≈ 236 µM) | 64 (≈ 236 µM) | 64 (≈ 236 µM) | 64 (≈ 236 µM) | 32 (≈ 118 µM) | 32 (≈ 118 µM) | 32 (≈ 118 µM) | 32 (≈ 118 µM) | 32 (≈ 118 µM) | 32 (≈ 118 µM) | 32 (≈ 118 µM) | 32 (≈ 118 µM) | EC50 (HIV-1 IIIB; 50% protection of MT-4 cells from HIV-1 induced cytopathogenicity, MTT, 4-day incubation): ≥ 43 µM; MIC (E. faecalis ATCC 29212): 64 µg/mL (≈ 236 µM); MIC (S. aureus NCTC 4163): 64 µg/mL (≈ 236 µM); MIC (S. aureus ATCC 29213): 64 µg/mL (≈ 236 µM)
